Laboratory results published in US9833497B2, “Human originated EGF domain proteins and use of the same” (CHENGDU SOURCEBIO LIMITED-LIABILITY COMPANY, priority 2013, dated 2017).

Legend:
Format in all cases: cell-based
E. coli BL21 = assay: MIC against Gram-negative bacteria: E. coli BL21; conditions: for MIC against E. coli BL21 / MIC E. coli BL21: 96-well plate, 5×10^5 CFU/mL, 37° C., 10 h
Outline: (§1)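 MIC = lowest concentration of recombinant protein showing no growth. Test proteins: purified human-derived EGF domain proteins, two-fold dilution series, three wells per concentration; inoculum 5×10^5 CFU/mL in LB; incubation 37° C with shaking at 175 rpm.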

Citrobacter diversus = assay: MIC against Gram-negative bacteria: Citrobacter diversus; conditions: for MIC against C. diversus / MIC C. diversus: 96-well plate, 5×10^5 CFU/mL, 37° C., 10 h
Outline: as §1

Klebsiella pneumonia = assay: MIC against Gram-negative bacteria: Klebsiella pneumonia; conditions: for MIC against K. pneumonia / MIC K. pneumonia: 96-well plate, 5×10^5 CFU/mL, 37° C., 10 h
Outline: as §1

Pseudomonas aeruginosa = assay: MIC against Gram-negative bacteria: Pseudomonas aeruginosa; conditions: for MIC against P. aeruginosa / MIC P. aeruginosa: 96-well plate, 5×10^5 CFU/mL, 37° C., 10 h
Outline: as §1

Aeromonas hydrophila = assay: MIC against Gram-negative bacteria: Aeromonas hydrophila; conditions: for MIC against A. hydrophila / MIC A. hydrophila: 96-well plate, 5×10^5 CFU/mL, 37° C., 10 h
Outline: as §1

Proteus mirabilis = assay: MIC against Gram-negative bacteria: Proteus mirabilis; conditions: for MIC against P. mirabilis / MIC P. mirabilis: 96-well plate, 5×10^5 CFU/mL, 37° C., 10 h
Outline: as §1

Serratia marcescens = assay: MIC against Gram-negative bacteria: Serratia marcescens; conditions: for MIC against S. marcescens / MIC S. marcescens: 96-well plate, 5×10^5 CFU/mL, 37° C., 10 h
Outline: as §1

E. coli DH5α = assay: Antibacterial activity: MIC and growth curve against E. coli DH5α in 96-well plate; conditions: minimal inhibitory concentration against E. coli DH5α; 96-well plate, 5×10^5 CFU/mL, 37° C., judged after 8 h
Outline: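 Log-phase bacteria (OD600 ~0.5) resuspended in LB at 5×10^5 CFU/mL, exposed to recombinant protein at 50, 25, 12.5 μg/mL final in triplicate, 37 °C shaking at 175 rpm. OD600 read every 30 min; MIC is lowest concentration showing no growth.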

Moraxella catarrhalis = assay: MIC against Gram-negative bacteria: Moraxella catarrhalis; conditions: for MIC against M. catarrhalis / MIC M. catarrhalis: 96-well plate, 5×10^5 CFU/mL, 37° C., 10 h
Outline: as §1

Proteus vulgaris = assay: MIC against Gram-negative bacteria: Proteus vulgaris; conditions: for MIC against P. vulgaris / MIC P. vulgaris: 96-well plate, 5×10^5 CFU/mL, 37° C., 10 h
Outline: as §1

Enterobacter cloacae = assay: MIC against Gram-negative bacteria: Enterobacter cloacae; conditions: for MIC against E. cloacae / MIC E. cloacae: 96-well plate, 5×10^5 CFU/mL, 37° C., 10 h
Outline: as §1

Q: What does the source list for “PRT1300 (VIDHCVPELNLCQHEAKCIPLDKGFSCECVPGYSGKLCE; listed as Homo sapiens)”?
A: MIC against E. coli BL21 (E. coli BL21; E. coli BL21): 50 µg/mL; MIC against C. diversus (Citrobacter diversus; Citrobacter diversus): 12.5 µg/mL; MIC against K. pneumonia (Klebsiella pneumonia; Klebsiella pneumonia): 12.5 µg/mL; MIC against P. aeruginosa (Pseudomonas aeruginosa; Pseudomonas aeruginosa): 25 µg/mL; MIC against A. hydrophila (Aeromonas hydrophila; Aeromonas hydrophila): 50 µg/mL; MIC against P. mirabilis (Proteus mirabilis; Proteus mirabilis): 12.5 µg/mL; MIC against S. marcescens (Serratia marcescens; Serratia marcescens): 12.5 µg/mL; MIC (E. coli DH5α): 12.5 µg/mL; MIC against M. catarrhalis (Moraxella catarrhalis; Moraxella catarrhalis): 12.5 µg/mL; MIC against P. vulgaris (Proteus vulgaris; Proteus vulgaris): 12.5 µg/mL; MIC against E. cloacae (Enterobacter cloacae; Enterobacter cloacae): 25 µg/mL

Q: How did the “MIC E. coli BL21” value (E. coli BL21) turn out when “PRT650 (DIDECQQGNLCVNGQCKNTEGSFRCTCGQGYQLSAAKDQCE; listed as Homo sapiens)” was run?
A: The value was 25 µg/mL.

Q: And the “MIC C. diversus” value (Citrobacter diversus)?
A: Its value is 12.5 µg/mL.

Q: And the “MIC K. pneumonia” value (Klebsiella pneumonia)?
A: The value was 12.5 µg/mL.

Q: What about the “MIC P. aeruginosa” value (Pseudomonas aeruginosa) of the same substance?
A: Its value is 50 µg/mL.

Q: And the “MIC A. hydrophila” value (Aeromonas hydrophila)?
A: The value was 25 µg/mL.

Q: What about the “MIC P. mirabilis” value (Proteus mirabilis) of the same substance?
A: Its value is 50 µg/mL.

Q: What about the “MIC S. marcescens” value (Serratia marcescens) of the same substance?
A: Its value is 50 µg/mL.

Q: And the MIC (E. coli DH5α)?
A: The MIC was 12.5 µg/mL.

Q: What about the “MIC M. catarrhalis” value (Moraxella catarrhalis) of the same substance?
A: Its value is 25 µg/mL.

Q: And the “MIC P. vulgaris” value (Proteus vulgaris)?
A: Its value is 12.5 µg/mL.

Q: And the “MIC E. cloacae” value (Enterobacter cloacae)?
A: Its value is 50 µg/mL.

Q: With “PRT936 (VLAPCSPNPCENAAVCKESPNFESYTCLCAPGWQGQRCT; listed as Homo sapiens)” as the substance, how does the MIC (E. coli BL21; E. coli BL21, 10 h cultivation at 37° C.) read?
A: The MIC was 12.5 µg/mL.

Q: And the MIC (Citrobacter diversus; C. diversus, 10 h cultivation at 37° C.)?
A: Its MIC is 50 µg/mL.

Q: What about the MIC (Klebsiella pneumonia; K. pneumonia, 10 h cultivation at 37° C.) of the same substance?
A: The MIC was 50 µg/mL.

Q: What about the MIC (Pseudomonas aeruginosa; P. aeruginosa, 10 h cultivation at 37° C.) of the same substance?
A: Its MIC is 25 µg/mL.

Q: And the MIC (Aeromonas hydrophila; A. hydrophila, 10 h cultivation at 37° C.)?
A: Its MIC is 25 µg/mL.

Q: What about the MIC (Proteus mirabilis; P. mirabilis, 10 h cultivation at 37° C.) of the same substance?
A: Its MIC is 50 µg/mL.

Q: What about the MIC (Serratia marcescens; S. marcescens, 10 h cultivation at 37° C.) of the same substance?
A: Its MIC is 50 µg/mL.

Q: And the MIC (E. coli DH5α)?
A: The MIC was 25 µg/mL.

Q: What about the MIC (Moraxella catarrhalis; M. catarrhalis, 10 h cultivation at 37° C.) of the same substance?
A: Its MIC is 12.5 µg/mL.

Q: And the MIC (Proteus vulgaris; P. vulgaris, 10 h cultivation at 37° C.)?
A: The MIC was 12.5 µg/mL.

Q: And the MIC (Enterobacter cloacae; E. cloacae, 10 h cultivation at 37° C.)?
A: The MIC was 12.5 µg/mL.

Q: Which results are given for “PRT1336 (DCNQCPGGFSNPCSGNGQCADSLGGNGTCICEEGFQGSQCQ; listed as Homo sapiens)”?
A: MIC against E. coli BL21 (E. coli BL21; E. coli BL21): 50 µg/mL; MIC against C. diversus (Citrobacter diversus; Citrobacter diversus): 50 µg/mL; MIC against K. pneumonia (Klebsiella pneumonia; Klebsiella pneumonia): 50 µg/mL; MIC against P. aeruginosa (Pseudomonas aeruginosa; Pseudomonas aeruginosa): 12.5 µg/mL; MIC against A. hydrophila (Aeromonas hydrophila; Aeromonas hydrophila): 12.5 µg/mL; MIC against P. mirabilis (Proteus mirabilis; Proteus mirabilis): 50 µg/mL; MIC against S. marcescens (Serratia marcescens; Serratia marcescens): 50 µg/mL; MIC (E. coli DH5α): 12.5 µg/mL; MIC against M. catarrhalis (Moraxella catarrhalis; Moraxella catarrhalis): 12.5 µg/mL; MIC against P. vulgaris (Proteus vulgaris; Proteus vulgaris): 12.5 µg/mL; MIC against E. cloacae (Enterobacter cloacae; Enterobacter cloacae): 25 µg/mL

Q: Which results are given for “PRT1223 (LEGACTRSPCQHGGTCMDYWSWQQCHCKEGLTGKYCE; listed as Homo sapiens)”?
A: MIC against E. coli BL21 (E. coli BL21; E. coli BL21): 25 µg/mL; MIC against C. diversus (Citrobacter diversus; Citrobacter diversus): 25 µg/mL; MIC against K. pneumonia (Klebsiella pneumonia; Klebsiella pneumonia): 50 µg/mL; MIC against P. aeruginosa (Pseudomonas aeruginosa; Pseudomonas aeruginosa): 12.5 µg/mL; MIC against A. hydrophila (Aeromonas hydrophila; Aeromonas hydrophila): 100 µg/mL; MIC against P. mirabilis (Proteus mirabilis; Proteus mirabilis): 12.5 µg/mL; MIC against S. marcescens (Serratia marcescens; Serratia marcescens): 12.5 µg/mL; MIC (E. coli DH5α): 50 µg/mL; MIC against M. catarrhalis (Moraxella catarrhalis; Moraxella catarrhalis): 50 µg/mL; MIC against P. vulgaris (Proteus vulgaris; Proteus vulgaris): 50 µg/mL; MIC against E. cloacae (Enterobacter cloacae; Enterobacter cloacae): 25 µg/mL

Q: “PRT661 (QAEECGILNGCENGRCVRVREGYTCDCFEGFQLDAAHMACV; listed as Homo sapiens)” was tested. Which “MIC E. coli BL21” value (E. coli BL21) did it give?
A: The value was 25 µg/mL.

Q: And the “MIC C. diversus” value (Citrobacter diversus)?
A: Its value is 12.5 µg/mL.

Q: What about the “MIC K. pneumonia” value (Klebsiella pneumonia) of the same substance?
A: The value was 25 µg/mL.

Q: And the “MIC P. aeruginosa” value (Pseudomonas aeruginosa)?
A: The value was 12.5 µg/mL.

Q: And the “MIC A. hydrophila” value (Aeromonas hydrophila)?
A: Its value is 25 µg/mL.

Q: And the “MIC P. mirabilis” value (Proteus mirabilis)?
A: The value was 50 µg/mL.

Q: And the “MIC S. marcescens” value (Serratia marcescens)?
A: The value was 25 µg/mL.

Q: What about the MIC (E. coli DH5α) of the same substance?
A: Its MIC is 50 µg/mL.

Q: What about the “MIC M. catarrhalis” value (Moraxella catarrhalis) of the same substance?
A: The value was 25 µg/mL.

Q: What about the “MIC P. vulgaris” value (Proteus vulgaris) of the same substance?
A: Its value is 25 µg/mL.

Q: What about the “MIC E. cloacae” value (Enterobacter cloacae) of the same substance?
A: The value was 50 µg/mL.

Q: Which “MIC against E. coli BL21” value (E. coli BL21) does the source give for “PRT462 (DVDECLEGLDDCHYNQLCENTPGGHRCSCPRGYRMQGPS; listed as Homo sapiens)” here?
A: Its value is 12.5 µg/mL.

Q: And the “MIC against C. diversus” value (Citrobacter diversus)?
A: The value was 12.5 µg/mL.

Q: And the “MIC against K. pneumonia” value (Klebsiella pneumonia)?
A: The value was 12.5 µg/mL.

Q: And the “MIC against P. aeruginosa” value (Pseudomonas aeruginosa)?
A: Its value is 100 µg/mL.

Q: And the “MIC against A. hydrophila” value (Aeromonas hydrophila)?
A: Its value is 12.5 µg/mL.

Q: What about the “MIC against P. mirabilis” value (Proteus mirabilis) of the same substance?
A: Its value is 25 µg/mL.

Q: What about the “MIC against S. marcescens” value (Serratia marcescens) of the same substance?
A: Its value is 25 µg/mL.

Q: What about the MIC (E. coli DH5α) of the same substance?
A: Its MIC is 12.5 µg/mL.

Q: What about the “MIC against M. catarrhalis” value (Moraxella catarrhalis) of the same substance?
A: The value was 50 µg/mL.

Q: What about the “MIC against P. vulgaris” value (Proteus vulgaris) of the same substance?
A: The value was 12.5 µg/mL.

Q: What about the “MIC against E. cloacae” value (Enterobacter cloacae) of the same substance?
A: Its value is 12.5 µg/mL.
